Data as given in publication PMC6001375, “CLERK is a novel receptor kinase required for sensing of root-active CLE peptides in Arabidopsis” (Development (Cambridge, England), 2018).
Where no end group is shown, it is not given here. [ ]: non-standard residue; d: D form. Hyp = O=C(O)[C@@H]1C[C@@H](O)CN1

Assays:
[1] = system: CLAVATA 1 (CLV1); details: ref Brand et al., 2000; Clark et al., 1995; Fletcher et al., 1999; cited from earlier work
From the text: (§1) The endogenous CLAVATA3/EMBRYO SURROUNDING REGION (CLE) peptides of plants are secreted as propeptides and processed to yield bioactive 12-14 amino acid long ligands ([Cock and McCormick, 2001]; [Ito et al., 2006]; [Kondo et al., 2006]). The Arabidopsis thaliana genome contains 32 CLE genes, which encode 27 distinct CLE peptides ([Goad et al., 2016]; [Ito et al., 2006]; [Strabala et al., 2006]). Exogenous application of chemically synthesized CLE peptides at nanomolar concentrations frequently suppresses Arabidopsis root growth in tissue culture ([Depuydt et al., 2013]; [Fiers et al., 2005]; [ ...

[2] = system: PHLOEM INTERCALATED WITH XYLEM (PXY); details: ref Etchells and Turner, 2010; Fisher and Turner, 2007; Hirakawa et al., 2008; Morita et al., 2016; cited from earlier work
From the text: as §1

[3] = system: SERKs with PXY; details: ref Hazak et al., 2017; Santiago et al., 2016; Zhang et al., 2016a,b; cited from earlier work
From the text: In numerous cases, ligand sensing by LRR-RKs requires interaction with co-receptor kinases ([Brandt and Hothorn, 2016]; [Hazak and Hardtke, 2016]; [Katsir et al., 2011]; [Li and Tax, 2013]). […] SERKs have also been implicated in PXY-mediated CLE41/44 signaling, although binding of PXY-CLE41/44 to ...

[4] = system: PXY ectodomain with NIK1/2/3 ectodomains; experiment: Analytical size-exclusion chromatography, PXY + NIK1/2/3 ectodomains; assay type: binding, Arabidopsis thaliana; details: Fig. S3F; 50 µM peptide; pH 5.0
Experimental: (§2) Isolation of recombinant proteins and analytical gel filtrations were carried out as described previously ([Hazak et al., 2017]) with small adjustments. The coding sequences for BAM1-ECD (amino acids 20-637), BAM3-ECD (30-651), PXY-ECD (30-647), NIK1-ECD (32-248), NIK2-ECD (33-248), NIK3-ECD (26-238), CLERK-ECD (28-236) and At5G63710-ECD (51-224) were amplified from Arabidopsis thaliana cDNA using PfuX7 polymerase. All ECD-coding sequences were then cloned into a modified pFAST-BAC1 vector (Geneva Biotech) by GIBSON cloning, resulting in the addition of the azurocidin signal peptide sequence to the 5′-end, and of a 2×-STREP-9×HIS tag to the 3′-end of the ECD sequences. These plasmids, after being confirmed by sequencing, were transformed into Escherichia coli DH10MultiBac (Geneva Biotech) followed by the extraction of the resulting bacmids. Transfection of the bacmids into Spodoptera frugiperda Sf9 cells with Profectin (AB Vector) was carried out to produce and amplify the respective virus. Recombinant secreted expression of the proteins was carried out by addition of virus to Trichoplusia ni Tnao38 cells to reach a viral multiplicity of 1 and incubation of the cells for 3 days. […] Concentrations of the pure proteins were assessed by measuring their absorbance at 280 nm (NanoDrop Lite; Thermo Scientific) and subsequent correction with their respective extinction coefficient. […]

[5] = system: PXY ectodomain with CLERK/At5g63710 ectodomains; experiment: Analytical size-exclusion chromatography, PXY + CLERK/At5g63710 ectodomains; assay type: binding, Arabidopsis thaliana; details: 50 µM peptide
Experimental: as §2

[6] = biological target: T1, BARELY ANY MERISTEM 1 (BAM1) ectodomain (Arabidopsis thaliana, UniProt O49545 20-637); experiment: ITC; Nano ITC, 25°C, 20 mM citrate (pH 5.0), 150 mM NaCl; peptide in the syringe, ectodomain in the cell: 400 µM CLE26 or CLE45 into 30 µM CLERK-ECD; 80 µM CLE9 into 13.8 µM BAM1-ECD; details: both partners purified
T1 construct: BAM1, LRR receptor kinase of Arabidopsis thaliana, extracellular domain, amino acids 20-637; The azurocidin signal peptide was added at the N-terminus for secretion; also called BAM1-ECD
T1 sequence (looked up): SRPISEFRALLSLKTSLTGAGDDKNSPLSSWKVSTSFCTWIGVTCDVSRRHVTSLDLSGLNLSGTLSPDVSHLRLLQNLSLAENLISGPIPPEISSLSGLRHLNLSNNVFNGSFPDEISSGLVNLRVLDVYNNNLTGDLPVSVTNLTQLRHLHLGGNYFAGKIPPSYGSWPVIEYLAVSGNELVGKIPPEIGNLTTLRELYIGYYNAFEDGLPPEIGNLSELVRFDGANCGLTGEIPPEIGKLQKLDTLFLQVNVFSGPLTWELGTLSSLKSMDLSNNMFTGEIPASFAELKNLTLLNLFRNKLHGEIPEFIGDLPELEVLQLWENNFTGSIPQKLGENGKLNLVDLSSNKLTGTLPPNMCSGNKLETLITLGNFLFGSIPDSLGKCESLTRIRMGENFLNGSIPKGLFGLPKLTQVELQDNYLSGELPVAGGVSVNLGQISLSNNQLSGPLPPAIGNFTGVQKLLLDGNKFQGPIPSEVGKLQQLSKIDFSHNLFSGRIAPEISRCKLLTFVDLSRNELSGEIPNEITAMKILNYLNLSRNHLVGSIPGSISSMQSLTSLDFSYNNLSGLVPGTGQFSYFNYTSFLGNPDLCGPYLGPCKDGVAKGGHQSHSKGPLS

[7] = biological target: T2, BARELY ANY MERISTEM 1 (BAM1) ectodomain (Arabidopsis thaliana, UniProt O49545 20-637); experiment: ITC
T2 chain: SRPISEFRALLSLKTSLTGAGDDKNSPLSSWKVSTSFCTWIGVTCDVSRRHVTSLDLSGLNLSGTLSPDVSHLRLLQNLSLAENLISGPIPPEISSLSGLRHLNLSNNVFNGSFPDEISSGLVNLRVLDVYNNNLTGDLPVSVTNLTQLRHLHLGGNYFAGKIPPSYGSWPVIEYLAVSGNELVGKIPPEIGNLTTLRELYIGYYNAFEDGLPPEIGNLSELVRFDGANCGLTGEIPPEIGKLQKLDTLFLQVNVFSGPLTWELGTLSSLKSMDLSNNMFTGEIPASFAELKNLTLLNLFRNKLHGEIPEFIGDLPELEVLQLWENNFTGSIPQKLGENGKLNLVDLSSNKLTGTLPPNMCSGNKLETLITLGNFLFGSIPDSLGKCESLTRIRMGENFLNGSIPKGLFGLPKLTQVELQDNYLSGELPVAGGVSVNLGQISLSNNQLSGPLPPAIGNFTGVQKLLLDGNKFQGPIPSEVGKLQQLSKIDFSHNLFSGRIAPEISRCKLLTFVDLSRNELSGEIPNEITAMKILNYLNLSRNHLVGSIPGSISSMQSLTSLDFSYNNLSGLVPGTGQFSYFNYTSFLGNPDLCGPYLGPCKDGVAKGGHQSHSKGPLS

## CLV3: prototypical CLV3 peptide, directly bound by CLV1 to regulate stem cell homeostasis in shoot meristems (RTVPSGPDPLHHH; not fully specified; ends and bridges not checked; UniProt Q9XF04 70-82, looked up)
[1]
  Binding to CLV1: directly binds

## HEVPSGPNPISN [CLE41, identical CLE41 and CLE44 peptides, perceived by PXY]
[2]
  Perception by PXY: perceives
[3]
  Binding of PXY-CLE41/44 to SERKs: comparatively weak
[4]
  Elution of PXY ectodomain with NIK1/2/3 ectodomains: elute as monomers
[5]; Fig. S3C, pH 5.0
  Elution of PXY ectodomain with CLERK/At5g63710 ectodomains: elute as monomers
[5]; gel filtration, 20 mM citrate (pH 5.0), 150 mM NaCl
  Peptide-dependent binding of CLERK ectodomain to PXY ectodomain: Neither did CLERK ectodomain bind to the BAM1 ectodomain or the PXY ectodomain

B1: CLE9 peptide (peptide)
peptide: RLV[Hyp]SG[Hyp]NPLHN
notes: CLE9 peptide of Arabidopsis thaliana, 12 residues; source: synthetic peptide (PSL GmbH)
[6]
  binding result: binds
[7]
  Kd: 12.7 nM
